In the supplement of paper PMC10307832 one finds relative viability data, which are given here for six cell lines.

What all share (test): relative viability (nuclei count vs DMSO), 5 days (fraction); higher = more cells survive
Compound in assay [1]: Cn1nnc2c(C(N)=O)ncn2c1=O [Temozolomide] + CS(=O)(=O)N1CCN(Cc2cc3nc(-c4cccc5[nH]ncc45)nc(N4CCOCC4)c3s2)CC1 [Pictilisib] (partner 1 µM)
The gist of the method:
(§1)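 The day after seeding in 1536-well plates, lung cancer cell lines were treated by pin tool with a single drug, or with a fixed anchor-drug dose together with five library-drug doses (not always all listed) in √10 steps. After 5 days, a combined fix-and-stain solution (final 0.05% Triton X-100, 1% formaldehyde, 1 ug/ml Hoechst) was added. Nuclei counted on 4× images gave relative viability as treated counts over vehicle counts, reported as the median of duplicate plates.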

Compound in assay [2]: C[C@@H](C(=O)N[C@@H](C1CCCCC1)C(=O)N2CCC[C@H]2C(=O)N[C@@H]3[C@@H](CC4=CC=CC=C34)OCC#CC#CCO[C@@H]5CC6=CC=CC=C6[C@@H]5NC(=O)[C@@H]7CCCN7C(=O)[C@H](C8CCCCC8)NC(=O)[C@H](C)NC)NC [AZD5582] + N=C(N)NC(=N)NCCc1ccccc1 [Phenformin] (partner 250 µM)
In short, it runs like this: as §1

Compound in assay [3]: Cn1nnc2c(C(N)=O)ncn2c1=O [Temozolomide] + O=C(CCCCCCC(=O)Nc1ccccc1)NO [Vorinostat] (partner 1 µM)
The gist of the method:
as §1

Compound in assay [4]: Cn1nnc2c(C(N)=O)ncn2c1=O [Temozolomide] + CC(=O)Nc1cccc(-n2c(=O)n(C3CC3)c(=O)c3c(Nc4ccc(I)cc4F)n(C)c(=O)c(C)c32)c1 [Trametinib] (partner 0.02 µM)
The gist of the method: as §1

On to NCI-H1395, for which the relative viability was determined as 0.554 in assay [1] (first compound 0.2 µM); 0.631 in assay [1] (first compound 0.6325 µM); 0.719 in assay [1] (first compound 2 µM); 0.612 in assay [1] (first compound 6.325 µM); 0.572 in assay [1] (first compound 20 µM); 0.5 in assay [2] (first compound 0.001581 µM). In addition, the relative viability was 0.476 in assay [2] (first compound 0.005 µM); 0.412 in assay [2] (first compound 0.01581 µM); 0.45 in assay [2] (first compound 0.05 µM); 0.901 in assay [3] (first compound 0.2 µM); 0.837 in assay [3] (first compound 0.6325 µM); 0.663 in assay [3] (first compound 2 µM). Further, the relative viability stood at 0.569 in assay [3] (first compound 6.325 µM); 0.673 in assay [3] (first compound 20 µM); 0.815 in assay [4] (first compound 0.2 µM); 1.06 in assay [4] (first compound 0.6325 µM); 1.17 in assay [4] (first compound 2 µM); 0.986 in assay [4] (first compound 6.325 µM). In assay [4] (first compound 20 µM), the relative viability turned out to be 1.02.
For NCI-H2170, the relative viability in assay [1] (first compound 0.6325 µM) came to 0.38; in assay [1] (first compound 2 µM), 0.361; in assay [1] (first compound 6.325 µM), 0.289; in assay [1] (first compound 20 µM), 0.23; in assay [2] (first compound 0.001581 µM), 0.38; in assay [2] (first compound 0.005 µM), 0.455. The relative viability in assay [2] (first compound 0.01581 µM) is 0.36; in assay [2] (first compound 0.05 µM) it was 0.409; in assay [3] (first compound 0.6325 µM), 0.763; in assay [3] (first compound 2 µM), 0.631; in assay [3] (first compound 6.325 µM), 0.461; in assay [3] (first compound 20 µM), 0.288. For the same cell line, the relative viability was 0.984 in assay [4] (first compound 0.6325 µM), 0.902 in assay [4] (first compound 2 µM), 0.876 in assay [4] (first compound 6.325 µM) and 0.348 in assay [4] (first compound 20 µM).
As to HOP-62, the relative viability in assay [1] (first compound 0.2 µM) is 0.918; in assay [1] (first compound 0.6325 µM), 0.961; in assay [1] (first compound 2 µM) it was 0.816; in assay [1] (first compound 6.325 µM), 0.385; in assay [1] (first compound 20 µM) it was 0.545; in assay [2] (first compound 0.001581 µM), 0.515. Further, the relative viability in assay [2] (first compound 0.005 µM) was determined as 0.676; in assay [2] (first compound 0.01581 µM), 0.666; in assay [2] (first compound 0.05 µM) it was 0.711; in assay [3] (first compound 0.2 µM), 0.873; in assay [3] (first compound 0.6325 µM), 0.58; in assay [3] (first compound 2 µM) it was 0.675. The relative viability is 0.456 in assay [3] (first compound 6.325 µM); 0.795 in assay [3] (first compound 20 µM); 0.395 in assay [4] (first compound 0.2 µM); 0.445 in assay [4] (first compound 0.6325 µM); 0.399 in assay [4] (first compound 2 µM); 0.424 in assay [4] (first compound 6.325 µM). For the same cell line, the relative viability in assay [4] (first compound 20 µM) was found to be 0.367.
In the case of NCI-H322M, the relative viability in assay [1] (first compound 0.6325 µM) was found to be 0.555; in assay [1] (first compound 2 µM) it was 0.545; in assay [1] (first compound 6.325 µM), 0.483; in assay [1] (first compound 20 µM) it was 0.363; in assay [2] (first compound 0.001581 µM), 0.776; in assay [2] (first compound 0.005 µM), 0.996. The relative viability in assay [2] (first compound 0.05 µM) amounted to 0.872; in assay [3] (first compound 0.2 µM) it was 0.93; in assay [3] (first compound 0.6325 µM) it was 0.931; in assay [3] (first compound 2 µM), 1.05; in assay [3] (first compound 6.325 µM), 0.899; in assay [3] (first compound 20 µM), 0.761. In addition, the relative viability in assay [4] (first compound 0.2 µM) came out at 0.446; in assay [4] (first compound 0.6325 µM) it was 0.526; in assay [4] (first compound 2 µM), 0.569; in assay [4] (first compound 6.325 µM), 0.532; in assay [4] (first compound 20 µM) it was 0.451.
Take NCI-H661: the relative viability in assay [1] (first compound 0.2 µM) came to 0.313; in assay [1] (first compound 0.6325 µM) it was 0.371; in assay [1] (first compound 2 µM), 0.39; in assay [1] (first compound 6.325 µM) it was 0.388; in assay [1] (first compound 20 µM), 0.39; in assay [2] (first compound 0.001581 µM) it was 0.268. Also, the relative viability in assay [2] (first compound 0.005 µM) came to 0.271; in assay [2] (first compound 0.01581 µM) it was 0.269; in assay [2] (first compound 0.05 µM), 0.267; in assay [3] (first compound 0.2 µM) it was 0.862; in assay [3] (first compound 0.6325 µM), 0.789; in assay [3] (first compound 2 µM), 0.849. For the same cell line, the relative viability in assay [3] (first compound 6.325 µM) turned out to be 0.783; in assay [3] (first compound 20 µM), 0.691; in assay [4] (first compound 0.2 µM), 0.513; in assay [4] (first compound 0.6325 µM), 0.564; in assay [4] (first compound 2 µM), 0.654; in assay [4] (first compound 6.325 µM) it was 0.528. The relative viability in assay [4] (first compound 20 µM) worked out at 0.562.
Consider NCI-H650, for which the relative viability in assay [1] (first compound 0.2 µM) worked out at 0.875; in assay [1] (first compound 0.6325 µM), 0.97; in assay [1] (first compound 2 µM), 0.943; in assay [1] (first compound 6.325 µM) it was 0.865; in assay [1] (first compound 20 µM) it was 0.908; in assay [2] (first compound 0.001581 µM), 0.417. The relative viability was found to be 0.401 in assay [2] (first compound 0.005 µM); 0.342 in assay [2] (first compound 0.01581 µM); 0.385 in assay [2] (first compound 0.05 µM); 0.522 in assay [3] (first compound 0.2 µM); 0.41 in assay [3] (first compound 0.6325 µM); 0.462 in assay [3] (first compound 2 µM). For the same cell line, the relative viability was determined as 0.299 in assay [3] (first compound 6.325 µM); 0.469 in assay [3] (first compound 20 µM); 0.954 in assay [4] (first compound 0.2 µM); 1.02 in assay [4] (first compound 0.6325 µM); 1.38 in assay [4] (first compound 2 µM); 0.869 in assay [4] (first compound 6.325 µM). The relative viability in assay [4] (first compound 20 µM) stood at 1.01.
